Patent publication US6982348B2, “Aminoethanol derivatives” (Takeda Pharmaceutical Company Limited, priority 2001, dated 2006)

Compound	melting point [°C]
O=C1CC(C(=O)N[C@H](Cc2ccc(C(F)(F)F)cc2)[C@@H](O)c2ccc(F)cc2)c2ccccc21 (mixture of isomers) [Example 53, N-((1RS,2SR)-2-(4-fluorophenyl)-2-hydroxy-1-((4-(trifluoromethyl)phenyl)methyl)ethyl)-3-oxo-2,3-dihydro-1H-indene-1-carboxamide]	237 to 238
N#Cc1ccc(C(=O)N[C@H](Cc2ccc(C(F)(F)F)cc2)[C@@H](O)c2ccc(F)cc2)c2ccccc12 (racemic) [Example 54, 4-cyano-N-[(1RS,2SR)-2-(4-fluorophenyl)-2-hydroxy-1-[4-(trifluoromethyl)benzyl]ethyl]naphthalene-1-carboxamide]	199 to 201
COc1ccc2c(C(=O)N[C@H](Cc3ccc(C(F)(F)F)cc3)[C@@H](O)c3ccc(F)cc3)cccc2c1 (racemic) [Example 56, N-((1RS,2SR)-2-(4-fluorophenyl)-2-hydroxy-1-((4-(trifluoromethyl)phenyl)methyl)ethyl)-6-(methyloxy)-1-naphthalenecarboxamide]	193 to 194
O=C(N[C@H](Cc1ccc(C(F)(F)F)cc1)[C@@H](O)c1ccc(F)cc1)c1ccnc2ccccc12 (racemic) [Example 57, N-((1RS,2SR)-2-(4-fluorophenyl)-2-hydroxy-1-((4-(trifluoromethyl)phenyl)methyl)ethyl)-4-quinolinecarboxamide]	227 to 228
O=C(N[C@H](Cc1ccc(C(F)(F)F)cc1)[C@@H](O)c1ccc(F)cc1)c1cccc2c1-c1ccccc1C2=O (racemic) [Example 61, N-((1RS,2SR)-2-(4-fluorophenyl)-2-hydroxy-1-((4-(trifluoromethyl)phenyl)methyl)ethyl)-9-oxo-9H-fluorene-4-carboxamide]	231 to 232
O=C(N[C@H](Cc1ccc(C(F)(F)F)cc1)[C@@H](O)c1ccc(F)cc1)c1ccc2ccccc2c1 (racemic) [Example 63, N-((1RS,2SR)-2-(4-fluorophenyl)-2-hydroxy-1-((4-(trifluoromethyl)phenyl)methyl)ethyl)-2-naphthalenecarboxamide]	174 to 175
COCc1ccc(C(=O)N[C@H](Cc2ccc(C(F)(F)F)cc2)[C@@H](O)c2ccc(F)cc2)c2ccccc12 (racemic) [Example 65, N-((1RS,2SR)-2-(4-fluorophenyl)-2-hydroxy-1-((4-(trifluoromethyl)phenyl)methyl)ethyl)-4-((methyloxy)methyl)-1-naphthalenecarboxamide]	170 to 171
O=C(N[C@H](Cc1ccc(C(F)(F)F)cc1)[C@@H](O)c1ccc(F)cc1)c1cccc2cc3ccccc3cc12 (racemic) [Example 66, N-((1RS,2SR)-2-(4-fluorophenyl)-2-hydroxy-1-((4-(trifluoromethyl)phenyl)methyl)ethyl)-1-anthracenecarboxamide]	227 to 228
O=C(N[C@H](Cc1ccc(C(F)(F)F)cc1)[C@@H](O)c1ccc(F)cc1)c1ccc2c(c1)OCO2 (racemic) [Example 72, N-((1RS,2SR)-2-(4-fluorophenyl)-2-hydroxy-1-((4-(trifluoromethyl)phenyl)methyl)ethyl)-1,3-benzodioxole-5-carboxamide]	180 to 181
Cc1oc(C(C)C)c(C(=O)N[C@H](Cc2ccc(C(F)(F)F)cc2)[C@@H](O)c2ccc(F)cc2)c1-c1ccc(F)cc1 (racemic) [Example 73, 4-(4-fluorophenyl)-N-[(1RS,2SR)-2-(4-fluorophenyl)-2-hydroxy-1-[4-(trifluoromethyl)benzyl]ethyl]-5-methyl-2-(1-methylethyl)furan-3-carboxamide]	134 to 136
O=C(N[C@H](Cc1ccc(C(F)(F)F)cc1)[C@@H](O)c1ccc(F)cc1)c1cccc(-c2ccccc2)c1 (racemic) [Example 74, N-((1RS,2SR)-2-(4-fluorophenyl)-2-hydroxy-1-((4-(trifluoromethyl)phenyl)methyl)ethyl)[1,1′-biphenyl]-3-carboxamide]	165 to 166
CN(C)c1ccc(C(=O)N[C@H](Cc2ccc(C(F)(F)F)cc2)[C@@H](O)c2ccc(F)cc2)c2ccccc12 (racemic) [Example 75, 4-(dimethylamino)-N-((1RS,2SR)-2-(4-fluorophenyl)-2-hydroxy-1-((4-(trifluoromethyl)phenyl)methyl)ethyl)-1-naphthalenecarboxamide]	169 to 170
O=C(N[C@H](Cc1ccc(C(F)(F)F)cc1)[C@@H](O)c1ccc(F)cc1)c1cc(Cl)cc2ccccc12 (racemic) [Example 76, 3-chloro-N-[(1RS,2SR)-2-(4-fluorophenyl)-2-hydroxy-1-[4-(trifluoromethyl)benzyl]ethyl]naphthalene-1-carboxamide]	220 to 221
O=C(N[C@H](Cc1ccc(C(F)(F)F)cc1)[C@@H](O)c1ccc(F)cc1)c1cccc2c1OCC2 (racemic) [Example 77, N-((1RS,2SR)-2-(4-fluorophenyl)-2-hydroxy-1-((4-(trifluoromethyl)phenyl)methyl)ethyl)-2,3-dihydro-1-benzofuran-7-carboxamide]	121 to 122

Next, values leading:

melting point [°C]	Compound
203 to 204	O=C(N[C@H](Cc1ccc(C(F)(F)F)cc1)[C@@H](O)c1ccc(F)cc1)C1CCCCC1 (racemic) [Example 52, N-((1RS,2SR)-2-(4-fluorophenyl)-2-hydroxy-1-((4-(trifluoromethyl)phenyl)methyl)ethyl)cyclohexanecarboxamide]
202 to 203	O=C(N[C@H](Cc1ccc(C(F)(F)F)cc1)[C@@H](O)c1ccc(F)cc1)c1ccc(F)cc1 (racemic) [Example 55, 4-fluoro-N-((1RS,2SR)-2-(4-fluorophenyl)-2-hydroxy-1-((4-(trifluoromethyl)phenyl)methyl)ethyl)benzamide]
192 to 193	COc1ccc(C(=O)N[C@H](Cc2ccc(C(F)(F)F)cc2)[C@@H](O)c2ccc(F)cc2)cc1 (racemic) [Example 60, N-((1RS,2SR)-2-(4-fluorophenyl)-2-hydroxy-1-((4-(trifluoromethyl)phenyl)methyl)ethyl)-4-(methyloxy)benzamide]
193 to 194	O=C(N[C@H](Cc1ccc(C(F)(F)F)cc1)[C@@H](O)c1ccc(F)cc1)c1ccccc1 (racemic) [Example 68, N-[(1RS,2SR)-2-(4-fluorophenyl)-2-hydroxy-1-[4-(trifluoromethyl)benzyl]ethyl]benzamide]
173 to 174	O=C(Cc1ccccc1)N[C@H](Cc1ccc(C(F)(F)F)cc1)[C@@H](O)c1ccc(F)cc1 (racemic) [Example 69, N-((1RS,2SR)-2-(4-fluorophenyl)-2-hydroxy-1-((4-(trifluoromethyl)phenyl)methyl)ethyl)-2-phenylacetamide]
162 to 163	O=C(N[C@H](Cc1ccc(C(F)(F)F)cc1)[C@@H](O)c1ccc(F)cc1)C(F)(F)F (racemic) [Example 70, N-[(1RS,2SR)-2-(4-fluorophenyl)-2-hydroxy-1-[4-(trifluoromethyl)benzyl]ethyl]-2,2,2-trifluoroacetamide]
151 to 152	O=C(CBr)N[C@H](Cc1ccc(C(F)(F)F)cc1)[C@@H](O)c1ccc(F)cc1 (racemic) [Example 78, 2-bromo-N-((1RS,2SR)-2-(4-fluorophenyl)-2-hydroxy-1-((4-(trifluoromethyl)phenyl)methyl)ethyl)acetamide]
